Drawing on PubChem BioAssay AID298 (DTP/NCI, 2004), this text covers T/C for 20 molecules.

This experiment concerns MX-1 breast xenograft, intrarenal, nude mice, tumor weight. Kind of experiment: NCI In Vivo Anticancer Drug Screen. Data for tumor model Human Mammary Carcinoma MX-1 Xenograft (intrarenal inoculation) in NU/NU BALB/C (nude) mice. Conditions: endpoint: mean tumor weight change, higher = larger tumour. In a few lines:
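T/C readout: treated-group measurement over vehicle-control measurement, using tumor size or survival in tumor-bearing mice.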

[1] abbreviates: dose: 125.0 mg/kg/injection, schedule: Q04DX003 (ip), vehicle: saline with Tween-80.
The mark [2] stands for this setting: dose: 250.0 mg/kg/injection, schedule: Q04DX003 (ip), vehicle: saline with Tween-80.
Where [3] appears, read: dose: 50.0 mg/kg/injection, schedule: Q01DX010 (sc), vehicle: saline.
[4] abbreviates: dose: 100.0 mg/kg/injection, schedule: Q01DX010 (sc), vehicle: saline.
Where [5] appears, read: dose: 200.0 mg/kg/injection, schedule: Q01DX010 (sc), vehicle: saline.

Several values for one entry are separate records, joined by “and”; a condition that tells them apart may be missing. Identical values can stand only once. Records with an inconclusive call do not appear.

With `NC(=S=O)C(N)=S=O`, the T/C reads like this: under setting [1], 42 % of control; under setting [2], 65 % of control; (dose: 500.0 mg/kg/injection, schedule: Q04DX003 (ip), vehicle: saline with Tween-80) 60 % of control.

As for `CNC(=O)ON(C(C)=O)C(=O)NC`, the T/C runs as follows: (dose: 12.5 mg/kg/injection, schedule: Q01DX010 (ip), vehicle: saline) 218 % of control; (dose: 25.0 mg/kg/injection, schedule: Q01DX010 (ip), vehicle: saline) 106 % of control; (dose: 25.0 mg/kg/injection, schedule: Q01DX010 (sc), vehicle: saline) 104 % of control; (dose: 50.0 mg/kg/injection, schedule: Q01DX010 (ip), vehicle: saline) 72 % of control; under setting [3], 26 % of control; (dose: 100.0 mg/kg/injection, schedule: Q01DX010 (ip), vehicle: saline) 5 % of control. In addition, the T/C is -42 % of control under setting [4] and -89 % of control under setting [5].

As to `CNC(=S)SC1=NS(=O)(=O)c2ccccc2N1`, the T/C is 179 % of control (dose: 200.0 mg/kg/injection, schedule: Q04DX003 (ip), vehicle: Klucel (hydroxypropylcellulose) (HPC)) and 165 % of control (dose: 400.0 mg/kg/injection, schedule: Q04DX003 (ip), vehicle: Klucel (hydroxypropylcellulose) (HPC)).

Regarding `O=C1C=C(N2CC2)C(=O)C(N2CC2)=C1N1CC1`, the T/C by setting is: (dose: 25.0 micrograms/kg/injection, schedule: Q04DX003 (ip), vehicle: saline) 4 % of control; (dose: 400.0 micrograms/kg/injection, schedule: Q04DX003 (ip), vehicle: saline) -100 % of control.

For `CCOc1cc2c(cc1C(C)c1ccc(OC)cc1)OCO2` (stereo unspecified), the T/C runs as follows: (dose: 300.0 mg/kg/injection, schedule: Q04DX003 (sc), vehicle: distilled water + alcohol) 36 % of control; (dose: 600.0 mg/kg/injection, schedule: Q04DX003 (sc), vehicle: distilled water + alcohol) 90 % of control; (dose: 1200.0 mg/kg/injection, schedule: Q04DX003 (sc), vehicle: distilled water + alcohol) 76 % of control; (dose: 2400.0 mg/kg/injection, schedule: Q04DX003 (sc), vehicle: distilled water + alcohol) 111 % of control.

On to `Oc1ccc(CCl)c2cccnc12`, for which the T/C is 120 % of control (dose: 75.0 mg/kg/injection, schedule: Q04DX003 (sc), vehicle: saline); 99 % of control (dose: 150.0 mg/kg/injection, schedule: Q04DX003 (sc), vehicle: saline); 87 % of control (dose: 300.0 mg/kg/injection, schedule: Q04DX003 (sc), vehicle: saline).

Consider `CS(=O)(=O)c1ncc(Br)cn1`, for which the T/C by setting is: (dose: 25.0 mg/kg/injection, schedule: Q01DX010 (sc), vehicle: distilled water + Tween-80) 98 % of control; (dose: 200.0 mg/kg/injection, schedule: Q01DX010 (sc), vehicle: distilled water + Tween-80) 118 % of control.

`CCOC(=O)c1ccc(NN=NCCF)cc1`: the T/C is, setting by setting: (dose: 150.0 mg/kg/injection, schedule: Q04DX003 (ip), vehicle: distilled water + Tween-80 + alcohol) 99 % of control; (dose: 300.0 mg/kg/injection, schedule: Q04DX003 (ip), vehicle: distilled water + Tween-80 + alcohol) 89 % of control; (dose: 600.0 mg/kg/injection, schedule: Q04DX003 (ip), vehicle: distilled water + Tween-80 + alcohol) 84 % of control; (dose: 1200.0 mg/kg/injection, schedule: Q04DX003 (ip), vehicle: distilled water + Tween-80 + alcohol) 49 % of control.

As to `Cc1cc(SCC(=O)c2ccc(Br)cc2)cc(C)[o+]1`, the T/C is 91 % of control under setting [3]; 124 % of control under setting [4]; 71 % of control under setting [5]; 102 % of control (dose: 400.0 mg/kg/injection, schedule: Q01DX010 (sc), vehicle: saline).

As for `C=C(C)C(=O)O[C@H]1CC2=C[C@@H](C[C@@]3(C)O[C@@H]3[C@H]3OC(=O)C(=C)[C@@H]31)OC2=O`, the T/C was 96 % of control (dose: 37.5 mg/kg/injection, schedule: Q04DX003 (sc), vehicle: Klucel (hydroxypropylcellulose) (HPC)); 78 % of control (dose: 75.0 mg/kg/injection, schedule: Q04DX003 (sc), vehicle: Klucel (hydroxypropylcellulose) (HPC)); 104 % of control (dose: 150.0 mg/kg/injection, schedule: Q04DX003 (sc), vehicle: Klucel (hydroxypropylcellulose) (HPC)); 72 % of control (dose: 300.0 mg/kg/injection, schedule: Q04DX003 (sc), vehicle: Klucel (hydroxypropylcellulose) (HPC)).

Regarding `Cc1cc2c(=O)cc(-c3ccccc3)oc2c(C(=O)O)c1C`, the T/C reads like this: under setting [1], 109 % of control; under setting [2], 99 % of control.

Consider `CC(=O)ON(C(C)=O)c1ccc(C(N)=O)cc1`, for which the T/C by setting is: (dose: 600.0 mg/kg/injection, schedule: Q04DX003 (sc), vehicle: saline with Tween-80) 52 % of control; (dose: 2400.0 mg/kg/injection, schedule: Q04DX003 (sc), vehicle: saline with Tween-80) 98 % of control.

For `CN(N=O)C(N)=O`, the T/C (dose: 25.0 mg/kg/injection, schedule: Q04DX003 (sc), vehicle: saline) is 80 % of control; the T/C (dose: 50.0 mg/kg/injection, schedule: Q04DX003 (sc), vehicle: saline with Tween-80) is 9 % of control; the T/C (dose: 50.0 mg/kg/injection, schedule: Q04DX003 (sc), vehicle: saline) was 26 % of control.

Take `CCN(CC)CCn1[nH]c2c3ccc(=O)cc3sc3c(NCCN)ccc1c32`: the T/C was 26 % of control and 40 % of control (dose: 3.12 mg/kg/injection, schedule: Q04DX003 (ip), vehicle: water); 35 % of control and 38 % of control and 42 % of control (dose: 6.25 mg/kg/injection, schedule: Q04DX003 (ip), vehicle: water); 50 % of control (dose: 25.0 mg/kg/injection, schedule: Q04DX003 (ip), vehicle: water).

As for `O=NNc1ccc(Cl)cn1`, the T/C by setting is: (dose: 4.7 mg/kg/injection, schedule: Q04DX003 (ip), vehicle: water) 60 % of control; (dose: 9.4 mg/kg/injection, schedule: Q04DX003 (ip), vehicle: water) 59 % of control; (dose: 18.7 mg/kg/injection, schedule: Q04DX003 (ip), vehicle: water) 29 % of control; (dose: 37.5 mg/kg/injection, schedule: Q04DX003 (ip), vehicle: water) 4 % of control.

Regarding `CO[C@@]12[C@H](COC(N)=O)C3=C(C(=O)C(C)=C(N)C3=O)N1C[C@@H]1N[C@@H]12`, the T/C is 9 % of control and 14 % of control (dose: 1.5 mg/kg/injection, schedule: Q04DX003 (sc), vehicle: saline); -100 % of control (dose: 6.0 mg/kg/injection, schedule: Q04DX003 (ip), vehicle: suspension in saline); -100 % of control (dose: 8.0 mg/kg/injection, schedule: Q04DX003 (ip), vehicle: suspension in saline).

Regarding `CC[C@@H](C)[C@H]([C@H](CC(=O)N1CCC[C@@H]1[C@@H](OC)[C@H](C)C(=O)N[C@H](Cc1ccccc1)c1nccs1)OC)N(C)C(=O)[C@H](NC(=O)[C@@H](C(C)C)N(C)C)C(C)C`, the T/C is 61 % of control (dose: 13.0 micrograms/kg/injection, schedule: Q04DX003 (ip), vehicle: saline + alcohol); 50 % of control (dose: 26.0 micrograms/kg/injection, schedule: Q04DX003 (ip), vehicle: saline + alcohol); 14 % of control (dose: 52.0 micrograms/kg/injection, schedule: Q04DX003 (ip), vehicle: saline + alcohol).

As for `ClC1(Cl)Cc2ccccc21`, the T/C was 109 % of control (dose: 150.0 mg/kg/injection, schedule: Q04DX003 (ip), vehicle: saline with Tween-80); 109 % of control (dose: 300.0 mg/kg/injection, schedule: Q04DX003 (ip), vehicle: saline with Tween-80); 45 % of control (dose: 600.0 mg/kg/injection, schedule: Q04DX003 (ip), vehicle: saline with Tween-80).

`O=C1C=CC(=CC=C2C=CN(CCCCCCCCCCCO)C=C2)C=C1`: the T/C by setting is: (dose: 12.5 mg/kg/injection, schedule: Q04DX003 (ip), vehicle: saline with Tween-80) 89 % of control; (dose: 25.0 mg/kg/injection, schedule: Q04DX003 (ip), vehicle: saline with Tween-80) 84 % of control; (dose: 50.0 mg/kg/injection, schedule: Q04DX003 (ip), vehicle: saline with Tween-80) 69 % of control.

In the case of `CCOC(=O)Nc1cc2c(c(N)n1)N=C(c1ccc3ccccc3c1)CN2`, the T/C by setting is: (dose: 3.75 mg/kg/injection, schedule: Q04DX003 (ip), vehicle: saline with Tween-80) 73 % of control; (dose: 7.5 mg/kg/injection, schedule: Q04DX003 (ip), vehicle: saline with Tween-80) 81 % of control; (dose: 15.0 mg/kg/injection, schedule: Q04DX003 (ip), vehicle: saline with Tween-80) 44 % of control; (dose: 30.0 mg/kg/injection, schedule: Q04DX003 (ip), vehicle: saline with Tween-80) 34 % of control.
